Experimental data from US9617282B2, “Macrocyclic compounds as IRAK4 inhibitors for the treatment of inflammatory diseases” (BIOGEN MA INC., priority 2013, dated 2017).

Tests used:
IRAK4 = IRAK4 (Homo sapiens (Human), UniProt Q9NWZ3); test: IRAK-4 biochemical kinase assay, AlphaScreen format; details: 1 nM IRAK4, 1.6 μM peptide, 10 μM ATP, 3.5 h at RT
Description: The biochemical assay is in a AlphaScreen format. The kinase reaction is based on the IRAK-4 phosphorylation of a biotin labeled peptide. The phosphopeptide is incubated with anti-phosphothreonine antibody as well as streptavidin- and protein A-coated beads. Binding of the protein-A coated beads to the antibody and the streptavidin beads to the peptide, leads to an energy transfer from one bead to the other, ultimately producing a luminescent/fluorescent signal.

A549 cells = test: Cell-based assay, IL-6 ELISA quantification in IL-1 beta stimulated A549 cells; details: 2 ng/ml human IL-1 beta overnight, class symbols, read-out: Celluar Data EC50
Description: The cell-based assays is based on IL-6 ELISA quantification. Briefly, A549 cells are cultured in DMEM with 10% FBS medium. When cells reach 80% confluence they are trypsin treated and seeded in 96-well plate at 2.5×10^4 cells/well. Then, 20 ul of compound serial dilutions (starting at 10 uM, 10 points) are added to the cell plate; incubate for 1 hour at 37 C and stimulated with 2 ng/ml human IL-1 beta 37 C overnight. The next day 100 ul of cell supernatant per well are analyzed on a Human IL-6 Quantikine ELISA kit from R&D Systems.

Sequence of IRAK4 (Q9NWZ3 whole entry, species assumed): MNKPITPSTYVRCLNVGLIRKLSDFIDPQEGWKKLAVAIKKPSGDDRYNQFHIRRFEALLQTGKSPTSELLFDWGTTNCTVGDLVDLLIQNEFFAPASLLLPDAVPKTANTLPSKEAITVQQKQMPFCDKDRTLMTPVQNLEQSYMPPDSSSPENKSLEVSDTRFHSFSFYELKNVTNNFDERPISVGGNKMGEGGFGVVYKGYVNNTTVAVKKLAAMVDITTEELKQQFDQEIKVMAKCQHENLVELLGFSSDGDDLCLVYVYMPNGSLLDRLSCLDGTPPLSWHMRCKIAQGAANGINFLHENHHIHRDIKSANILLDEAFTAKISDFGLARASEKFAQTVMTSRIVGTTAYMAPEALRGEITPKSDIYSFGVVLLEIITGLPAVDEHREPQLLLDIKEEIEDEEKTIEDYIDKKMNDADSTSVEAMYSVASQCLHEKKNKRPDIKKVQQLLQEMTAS

| SMILES | IC50 (IRAK4; class symbols) [nM] | EC50 (A549 cells) [nM] | IC50 (IRAK4; given as numeric bound) [nM] |
| --- | --- | --- | --- |
| Cn1cc2c(n1)C(=O)NCCOCCCn1cc(cn1)-c1nc(cs1)C(=O)N2 [Example 135] | < 100 | < 1000 |  |
| O=C1Nc2cnccc2C(=O)NCCOCCOc2cc(ccn2)-c2nc1cs2 [Example 130] | < 100 | < 1000 |  |
| O=C1Nc2cn(CCN3CCNCC3)nc2C(=O)NCCOCCOc2cc(ccn2)-c2nc1cs2 [Example 115] | < 100 | < 10000 |  |
| O=C1Nc2cn(C3CCOCC3)nc2C(=O)NCCCCNc2cc(ccn2)-c2nc1cs2 [Example 132] | < 100 | < 1000 |  |
| Cn1cc2c(n1)C(=O)NCCOCCc1cc(ccn1)-c1nc(cs1)C(=O)N2 [Example 133] | < 1000 | < 10000 |  |
| CC(=O)N1CCCc2cc(ccn2)-c2nc(cs2)C(=O)Nc2cn(C3CCOCC3)nc2C(=O)NCC1 [Example 170] | < 100 | < 1000 |  |
| O=C1Nc2cn(C3CCOCC3)nc2C(=O)NCCCOCCOc2cc(ccn2)-c2nc1co2 [Example 125] | < 100 | < 1000 |  |
| O=C1Nc2cn(C3CCOCC3)nc2C(=O)NCCCOCCOc2cc(ccn2)-c2nc1cs2 [Example 121] | < 100 | < 10000 |  |
| CC(C)n1cc2c(n1)C(=O)NCCOCCOc1cc(ccn1)-c1nc(cs1)C(=O)N2 [Example 162] | < 100 | > 10000 |  |
| Cn1cc2c(n1)C(=O)NCCOCCCc1cc(ccn1)-c1nc(cs1)C(=O)N2 [Compound 48] | < 100 | < 10000 |  |
| O=C1NC[C@H]2CC[C@@H](C2)OCCCNc2cc(ccn2)-c2nc1cs2 [Example 82] | < 1000 | < 10000 |  |
| CC(C)(C)OC(=O)N1CCN(CCn2ncc3c2C(=O)NCCOCCOc2cc(ccn2)-c2nc(cs2)C(=O)N3)CC1 [Example 108] | < 1000 | > 10000 |  |
| CC(C)(C)OC(=O)N1CCC(Cn2cc3c(n2)C(=O)NCCOCCOc2cc(ccn2)-c2nc(cs2)C(=O)N3)CC1 [Example 159] | < 100 | < 10000 |  |
| O=C1Nc2cn(C3CCOCC3)nc2C(=O)NCCOCCCc2cc(ccn2)-c2nc1cs2 [Compound 47] | < 100 | < 1000 |  |
| O=C1Nc2cn(C3CCCCO3)nc2C(=O)NCCOCCOc2cc(ccn2)-c2nc1cs2 (centres unmarked) [Example 110] | < 100 | < 10000 |  |
| O=C(O)CCn1cc2c(n1)C(=O)NCCOCCOc1cc(ccn1)-c1nc(cs1)C(=O)N2 [Example 149] | < 1000 | > 10000 |  |
| Cn1cc2c(n1)C(=O)NCCCOCCOc1cc(ccn1)-c1nc(cs1)C(=O)N2 [Example 120] | < 100 | < 1000 |  |
| O=C1Nc2cn(CCC3CCNCC3)nc2C(=O)NCCOCCOc2cc(ccn2)-c2nc1cs2 [Example 155] | < 100 | > 10000 |  |
| Cn1cc2c(n1)C(=O)NCCCCCCCCNc1cc(ccn1)-c1nc(co1)C(=O)N2 [Compound 29] | < 100 | < 1000 |  |
| O=C1Nc2cn(CCCO)nc2C(=O)NCCOCCOc2cc(ccn2)-c2nc1cs2 [Example 152] | < 100 | > 10000 |  |
| CN1CCN(CCn2cc3c(n2)C(=O)NCCOCCNc2cc(ccn2)-c2nc(cs2)C(=O)N3)CC1 [Example 143] | < 100 | < 10000 |  |
| O=C(O)Cn1cc2c(n1)C(=O)NCCOCCOc1cc(ccn1)-c1nc(cs1)C(=O)N2 [Example 146] | < 10000 | > 10000 |  |
| O=C1Nc2cn(C3CCOCC3)nc2C(=O)NCCOCCc2cc(ccn2)-c2nc1cs2 [Example 134] | < 100 | > 10000 |  |

| SMILES | IC50 (IRAK4; class symbols) [nM] | EC50 (A549 cells) [nM] | IC50 (IRAK4; given as numeric bound) [nM] |
| --- | --- | --- | --- |
| O=C1c2coc(n2)-c2ccnc(c2)OCCCCOCC2CCCN12 (centres unmarked) [Example 104] | < 10000 |  |  |
| CN1CCN(C(=O)c2ccc3c(c2)NC(=O)c2csc(n2)-c2ccnc(c2)NCCCCCO3)CC1 [Compound 23] | < 100 |  |  |
| O=C1Nc2cn(C3CCOCC3)nc2C(=O)NCCCCCc2cc(ccn2)-c2nc1c[nH]2 [Example 97] | < 10000 |  |  |
| Cn1cc2c(n1)C(=O)NCCCCCOc1cc(ccn1)-c1nc(co1)C(=O)N2 [Compound 37] | < 100 |  |  |
| CC(C)(C)OC(=O)N1CCC(CCn2ncc3c2C(=O)NCCOCCOc2cc(ccn2)-c2nc(cs2)C(=O)N3)CC1 [Example 157] | < 10000 |  |  |
| CN1CCOCCNC(=O)c2nn(CCN3CCOCC3)cc2NC(=O)c2csc(n2)-c2ccnc1c2 [Example 220] | < 100 |  |  |
| O=C1NCCCCCCCCCn2cc(cn2)-c2nc1co2 [Compound 9] | < 1000 |  |  |
| O=C1Nc2cn(C3CCOCC3)nc2C(=O)NCCCCCOc2cc(ccn2)-c2nc1co2 [Compound 38] | < 100 |  |  |
| CCNC(=O)N1CCCc2cc(ccn2)-c2nc(cs2)C(=O)Nc2cn(C3CCOCC3)nc2C(=O)NCC1 [Example 191] | < 100 |  |  |
| CN1CCCCCOc2ccccc2NC(=O)c2coc(n2)-c2ccnc1c2 [Compound 11] | < 1000 |  |  |
| O=C(NCCN1CCCCC1)c1ccc2c(c1)NC(=O)c1csc(n1)-c1ccnc(c1)NCCCCCO2 [Compound 18] | < 100 |  |  |
| Cn1cc2c(n1)C(=O)NCCCCCn1cc(cn1)-c1nc(co1)C(=O)N2 [Compound 41] | < 1000 |  |  |
| O=C1c2coc(n2)-c2ccnc(c2)NCCCCCOCC2CCCN12 (centres unmarked) [Compound 59] | < 100 |  |  |
| CN1CCC(CCn2ncc3c2C(=O)NCCOCCOc2cc(ccn2)-c2nc(cs2)C(=O)N3)CC1 [Example 156] | < 10000 |  |  |
| CN(C)CCN1CCCCCCOc2cc(ccn2)-c2nc(co2)C1=O [Compound 54] | < 1000 |  |  |
| O=C1Nc2ccccc2OCCCCCCn2cc(cn2)-c2nc1cs2 [Example 72] | < 100 |  |  |
| Cn1cc2c(n1)C(=O)N(COCC[Si](C)(C)C)CCCCOc1cc(ccn1)-c1nc(cn1COCC[Si](C)(C)C)C(=O)N2 [Example 93] | < 10000 |  |  |
| NCCC(=O)N1CCCc2cc(ccn2)-c2nc(cs2)C(=O)Nc2cn(C3CCOCC3)nc2C(=O)NCC1 [Example 178] | < 100 |  |  |
| O=C1NCCOC2CCC(CC2)CNc2cc(ccn2)-c2nc1cs2 [Example 88] | < 10000 |  |  |
| O=C1Nc2cn(C3CCOCC3)nc2C(=O)NCCCc2cc(ccn2)-c2nc1cs2 [Example 192] | < 10000 |  |  |
| O=C1Nc2cn(C3CCOCC3)nc2C(=O)NCCCCCn2cc(cn2)-c2nc1co2 [Compound 42] | < 1000 |  |  |
| O=C1CNC(=O)c2nn(C3CCOCC3)cc2NC(=O)c2csc(n2)-c2ccnc(c2)CCCN1 [Example 196] | < 100 |  |  |
| Cn1cc2c(n1)C(=O)NCCOCCOc1cc(ccn1)-c1nc(co1)C(=O)N2 [Compound 35] | < 100 |  |  |

| SMILES | IC50 (IRAK4; class symbols) [nM] | EC50 (A549 cells) [nM] | IC50 (IRAK4; given as numeric bound) [nM] |
| --- | --- | --- | --- |
| O=C1Nc2ccccc2OC2CCC(CCc3cc(ccn3)-c3nc1co3)CC2 [Example 81] | < 100 |  |  |
| Cn1cc2c(n1)C(=O)NCCCCNc1cc(ccn1)-c1nc(co1)C(=O)N2 [Compound 31] | < 100 |  |  |
| CC1NC(=O)c2nn(C3CCOCC3)cc2NC(=O)c2csc(n2)-c2ccnc(c2)CCCNC1=O (centres unmarked) [Example 197] | < 1000 |  |  |
| O=C1Nc2cn(C3CCOCC3)nc2C(=O)NCCOCCOc2cc(ccn2)-c2cccc1n2 [Example 204] | < 1000 |  |  |
| CCN1CCCCCCCCN(CC)c2cc(ccn2)-c2nc(cs2)C1=O [Example 65] | < 10000 |  |  |
| O=C1Nc2cn(C3CCOCC3)nc2C(=O)NC(CCOCc2ccccc2)C(=O)NCCCc2cc(ccn2)-c2nc1cs2 (centres unmarked) [Example 199] |  |  | > 10000 |
| CN1CCOCCNC(=O)c2nn(CCN3CCCCC3)cc2NC(=O)c2csc(n2)-c2ccnc1c2 [Example 221] | < 100 |  |  |
| O=C1Nc2cn(C3CCOCC3)nc2C(=O)NCCN(C(=O)C2CC2)CCCc2cc(ccn2)-c2nc1cs2 [Example 184] | < 100 |  |  |
| CCOC(=O)CN1CCCc2cc(ccn2)-c2nc(cs2)C(=O)Nc2cn(C3CCOCC3)nc2C(=O)NCC1 [Example 176] |  |  | > 10000 |
| CC(C)(C)C(=O)N1CCCc2cc(ccn2)-c2nc(cs2)C(=O)Nc2cn(C3CCOCC3)nc2C(=O)NCC1 [Example 182] | < 1000 |  |  |
| NC(=O)CN1CCCc2cc(ccn2)-c2nc(cs2)C(=O)Nc2cn(C3CCOCC3)nc2C(=O)NCC1 [Example 175] | < 1000 |  |  |
| Cn1cc2c(n1)C(=O)NCCC/C=C/CCCN(C(=O)OC(C)(C)C)c1cc(ccn1)-c1nc(co1)C(=O)N2 [Compound 28] | < 1000 |  |  |
| CC(C)N1CCCc2cc(ccn2)-c2nc(cs2)C(=O)Nc2cn(C3CCOCC3)nc2C(=O)NCC1 [Example 174] | < 100 |  |  |
| Cn1cc2c(n1)C(=O)NCCCCCNc1cc(ccn1)-c1nc(co1)C(=O)N2 [Compound 33] | < 100 |  |  |
| CN1CCCCCCOc2cc(ccn2)-c2nc(co2)C1=O [Compound 52] |  |  | > 10000 |
| NC(=O)CCN1CCCc2cc(ccn2)-c2nc(cs2)C(=O)Nc2cn(C3CCOCC3)nc2C(=O)NCC1 [Example 181] | < 100 |  |  |
| NC(=O)CCC1NC(=O)c2nn(C3CCOCC3)cc2NC(=O)c2csc(n2)-c2ccnc(c2)CCCNC1=O (centres unmarked) [Example 195] | < 1000 |  |  |
| CN(C)CCNC(=O)c1ccc2c(c1)OCCCCCNc1cc(ccn1)-c1nc(cs1)C(=O)N2 [Compound 25] | < 100 |  |  |
| O=C1Nc2cn(C3CCOCC3)nc2C(=O)NCCNCCCc2cc(ccn2)-c2nc1cs2 [Example 168] | < 100 |  |  |
| Cn1cc(N2CCCCCOc3cnccc3-c3nc(co3)C2=O)cn1 [Compound 61] | < 1000 |  |  |
| O=C1NCC(C2CC2)OCCCCCNc2cc(ccn2)-c2nc1co2 (centres unmarked) [Example 75] | < 1000 |  |  |
| CN1CCCCNC(=O)c2nn(C)cc2NC(=O)c2csc(n2)-c2ccnc1c2 [Example 223] | < 100 |  |  |
| O=C1Nc2ccc(CCCN3CCCCC3)cc2OCCCCCNc2cc(ccn2)-c2nc1cs2 [Compound 27] | < 100 |  |  |
